Data: patent US20240150340A1, “CDK Inhibitors And Their Use As Pharmaceuticals” (Prelude Therapeutics Incorporated, priority 2022, published 2024)

Assays:
[1] = target: T1, CDK4/Cyclin D1 (Homo sapiens, UniProt P11802); experiment: CDK4/CyclinD1 Enzymatic Activity Assay (TR-FRET); type: biochemical; details: ATP 2 mM final, read-out: CDK4_D1 IC50
T1 construct: purchased ProQinase; host or cells: insect cell
Protocol: CDK4/CyclinD1 Enzymatic Activity Assay
The inhibitory activity of compounds was evaluated in vitro using TR-FRET assay with white 384-well low volume microplate (Greiner Bio-One). CDK4/Cyclin D1 catalyzed phosphorylation of peptide in the presence and absence of compounds was measured and used in IC50 determination. Recombinant protein complex CDK4/Cyclin D1, expressed from insect cell, was purchased from ProQinase. Testing compounds were dissolved in DMSO at 1 mM and tested in 9-dose IC50 mode. The reaction mixture was prepared by mixing CDK4/CyclinD1 (1 nM final), ULight-4E-BP1 (100 nM final, Perkinelmer, TRF0128-D), and ATP (2 mM final) in assay buffer (20 mM of HEPES pH 7.4, 1 mM of EGTA, 0.05% BSA, 0.005% Tween 20, and 1 mM TCEP). The compound of interest in DMSO was added to each well in 3-fold serial dilution by the dispenser (TECAN D300E) to make a 9.9 μL of reaction mixture. After 20 minutes preincubation at room temperature, 0.1 μL MgCl2 (10 mM final) was added to initiate the reaction. Following a 45-minute incubation at 37° C., the reaction was stopped by addition of 2 μL of quenching buffer consisting of Lance detection buffer (Perkinelmer CR97-100C), LANCE Ultra Europium-anti-P-4E-BP1 (Perkinelmer, TRF0216-D), EDTA, and incubated at room temperature for additional 60 minutes in dark. The reaction signal was measured by Envision multimode plate reader (PerkinElmer, 2102-0010). IC50 values were determined by fitting the data to the standard 4 parameters with Hill Slope using GraphPad Prism software.

[2] = system: OVCAR3 p-RB; experiment: pRB ICW Assay in OVCAR3 Cells; type: cell-based; details: Homo sapiens, OVCAR-3, incubated with compound for 2 hours
Procedure, shortened: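 OVCAR3 cells were treated 2 h at 37° C. with a 9-point half-log compound series, duplicate wells, with 10 μM reference compound as maximum inhibition. Fixed, permeabilized cells were stained with anti-phospho-RB plus DRAQ5 and imaged at 700/800 nm (In-Cell Western).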

[3] = target: T2, CDK2/Cyclin E2 (Homo sapiens, UniProt P24941); experiment: CDK2/CyclinE2 Enzymatic Activity Assay (TR-FRET); type: biochemical; details: ATP 1 mM final, read-out: CDK2_E1 IC50
T2 construct: Recombinant protein complex CDK2/Cyclin E2, expressed from insect cell, was purchased from ProQinase
Procedure, shortened: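 Recombinant insect-cell CDK2/Cyclin E2 (1 nM) phosphorylated ULight-4E-BP1 (50 nM) with 1 mM ATP in HEPES pH 7.4 buffer, after 20 min compound preincubation; MgCl2 (10 mM) started the 45 min reaction at 37° C. Europium anti-phospho-4E-BP1 TR-FRET read; 9-dose IC50 by 4-parameter fit.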

T1 sequence (P11802 whole entry): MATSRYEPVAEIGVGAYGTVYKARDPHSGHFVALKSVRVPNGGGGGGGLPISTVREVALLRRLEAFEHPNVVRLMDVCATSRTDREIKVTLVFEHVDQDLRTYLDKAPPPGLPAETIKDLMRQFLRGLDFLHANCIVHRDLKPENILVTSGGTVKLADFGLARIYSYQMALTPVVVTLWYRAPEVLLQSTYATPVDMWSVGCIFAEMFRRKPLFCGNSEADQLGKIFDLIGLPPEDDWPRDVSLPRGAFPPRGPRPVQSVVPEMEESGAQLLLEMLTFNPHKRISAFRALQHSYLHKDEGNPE
T1 sequence (P24385 whole entry partner): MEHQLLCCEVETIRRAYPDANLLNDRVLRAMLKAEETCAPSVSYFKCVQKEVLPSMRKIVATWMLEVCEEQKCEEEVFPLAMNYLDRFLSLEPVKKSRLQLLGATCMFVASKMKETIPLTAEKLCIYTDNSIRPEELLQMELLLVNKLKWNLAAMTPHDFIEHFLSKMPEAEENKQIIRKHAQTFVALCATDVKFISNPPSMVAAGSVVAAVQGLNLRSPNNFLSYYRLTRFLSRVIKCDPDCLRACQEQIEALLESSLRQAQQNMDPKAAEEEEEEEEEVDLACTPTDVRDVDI

Structure (SMILES) | IC50 [1] [nM] | IC50 [2] [nM] | IC50 [3] [nM]
Cc1sc(-c2nc(N[C@@H]3CCN(S(=O)(=O)c4cnn(C)c4)C[C@H]3F)ncc2C(F)(F)F)cc1C(N)=O [Example 17, 5-(2-(((3R,4R)-3-fluoro-1-((1-methyl-1H-pyrazol-4-yl)sulfonyl)piperidin-4-yl)amino)-5-(trifluoromethyl)pyrimidin-4-yl)-2-methylthiophene-3-carboxamide] | ≤ 100 | ≤ 100 | ≤ 100
Cc1sc(-c2nc(N[C@@H]3CCN(S(=O)(=O)c4cn(C)cn4)C[C@H]3F)ncc2C(F)(F)F)cc1C(N)=O [Example 18, 5-(2-(((3R,4R)-3-fluoro-1-((1-methyl-1H-imidazol-4-yl)sulfonyl)piperidin-4-yl)amino)-5-(trifluoromethyl)pyrimidin-4-yl)-2-methylthiophene-3-carboxamide] | ≤ 100 | ≤ 100 | ≤ 100
C[C@@H]1CN(S(=O)(=O)c2cnn(C)c2)CC[C@@H]1Nc1ncc(C(F)(F)F)c(-c2cc(C(N)=O)cs2)n1 [Example 19, 5-(2-(((3R,4S)-3-methyl-1-((1-methyl-1H-pyrazol-4-yl)sulfonyl)piperidin-4-yl)amino)-5-(trifluoromethyl)pyrimidin-4-yl)thiophene-3-carboxamide] | ≤ 100 | ≤ 100 | ≤ 100
C[C@@H]1CN(S(=O)(=O)c2cn(C)cn2)CC[C@@H]1Nc1ncc(C(F)(F)F)c(-c2cc(C(N)=O)cs2)n1 [Example 20, 5-(2-(((3R,4S)-3-methyl-1-((1-methyl-1H-imidazol-4-yl)sulfonyl)piperidin-4-yl)amino)-5-(trifluoromethyl)pyrimidin-4-yl)thiophene-3-carboxamide] | ≤ 100 | 100 to 500 | ≤ 100
C[C@@H]1CN(S(=O)(=O)c2c[nH]cn2)CC[C@@H]1Nc1ncc(C(F)(F)F)c(-c2cc(C(N)=O)cs2)n1 [Example 21, 5-(2-(((3R,4S)-1-((1H-imidazol-4-yl)sulfonyl)-3-methylpiperidin-4-yl)amino)-5-(trifluoromethyl)pyrimidin-4-yl)thiophene-3-carboxamide] | 100 to 500 | 100 to 500 | ≤ 100
C[C@@H]1CN(S(=O)(=O)c2cnc3cccnn23)CC[C@@H]1Nc1ncc(C(F)(F)F)c(-c2cc(C(N)=O)cs2)n1 [Example 22, 5-(2-(((3R,4S)-1-(imidazo[1,2-b]pyridazin-3-ylsulfonyl)-3-methylpiperidin-4-yl)amino)-5-(trifluoromethyl)pyrimidin-4-yl)thiophene-3-carboxamide] | 100 to 500 | ≤ 100 | ≤ 100
Cc1sc(-c2nc(N[C@H]3CCN(S(=O)(=O)c4cnn(C)c4)C[C@H]3C)ncc2C(F)(F)F)cc1C(N)=O [Example 23, 2-methyl-5-(2-(((3R,4S)-3-methyl-1-((1-methyl-1H-pyrazol-4-yl)sulfonyl)piperidin-4-yl)amino)-5-(trifluoromethyl)pyrimidin-4-yl)thiophene-3-carboxamide] | ≤ 100 | ≤ 100 | ≤ 100
Cc1sc(-c2nc(N[C@H]3CCN(S(=O)(=O)c4cn(C)cn4)C[C@H]3C)ncc2C(F)(F)F)cc1C(N)=O [Example 24, 2-methyl-5-(2-(((3R,4S)-3-methyl-1-((1-methyl-1H-imidazol-4-yl)sulfonyl)piperidin-4-yl)amino)-5-(trifluoromethyl)pyrimidin-4-yl)thiophene-3-carboxamide] | ≤ 100 | ≤ 100 | ≤ 100
Cc1sc(-c2nc(N[C@H]3CCN(S(=O)(=O)c4c[nH]cn4)C[C@H]3C)ncc2C(F)(F)F)cc1C(N)=O [Example 25, 5-(2-(((3R,4S)-1-((1H-imidazol-4-yl)sulfonyl)-3-methylpiperidin-4-yl)amino)-5-(trifluoromethyl)pyrimidin-4-yl)-2-methylthiophene-3-carboxamide] | ≤ 100 | 100 to 500 | ≤ 100
